Columns and labels:
[1] = system: acute colitis model; experiment: DSS-induced acute colitis model in mice (DAI, colon pathology); assay type: in vivo; conditions: 3% DSS for 9 days, treatment group DSS+DHB, DHB 50 mg/kg daily
Description: Experimental method: Thirty 4-6-week-old mice, 15 males and 15 females, were selected for adaptive feeding for 7 days in advance. They were randomly divided into control group (CON), model group (DSS) and treatment group (DSS+DHB), with 10 mice in each group. The model group and the treatment group were gavaged with 3% dextran sodium sulfate (DSS) for 9 days to establish an acute colitis model, while the control group was gavaged with the same amount of normal saline every day. The weight, feces and rectal bleeding of mice were recorded every day, and the disease activity index (DAI) was used to evaluate the condition of colitis. The DAI value was obtained by adding all the scores and dividing them by three. Mice in the treatment group were given DHB at a daily dose of 50 mg/kg. On the 10th day, blood was taken from the orbit of each mouse, and then it was killed. Colon tissues were collected, fixed in 4% paraformaldehyde solution and stored at −80° C. for subsequent analysis. The pathological damage of colon tissue was examined by hematoxylin-eosin staining and Alxin blue staining. [table]

[2] = system: Bacteroides and Firmicutes; experiment: Abundance ratio of Bacteroides and Firmicutes in mouse feces; assay type: in vivo, mice; conditions: DHB 100 mg/kg, 4 weeks, FIG. 3
Description: Experimental method: After a week of adaptive feeding, mice were randomly divided into four groups according to sex and weight: group 1, control group, n=10; group 2, normal+DHB group, n=10; group 3, high-fat-high-sugar group, n=10; and group 4, high-fat-high-sugar+DHB group, n=10. High-fat-high-sugar group (group 3) and high-fat-high-sugar+DHB group (group 4) were given high-fat and high-sugar feed (containing 35% fat, 18% protein and 47% carbohydrate), while the control group and normal+DHB group were given normal feed. After eight weeks, blood was taken from the tail vein to detect blood sugar, and the groups 3 and 4 were given high-fat and high-sugar feed, while the control group and normal+DHB group (groups 1 and 2) were given basic feed until the end of the experiment. Then, groups 2 and 4 were administered DHB at 100 mg/kg (dissolved in physiological saline) for 4 weeks, and fecal samples were taken on days 0, 14 and 28. The maximum dose of DHB refers to the usual dose of daily health care, and the dosage is set to 200 mg/kg. The specific gavage scheme is: dissolve DHB in water and gavage once a day according to the weight of mice, while the control group gavage with the same amount of pure water. […] After completing the classification of data species, the relative abundance of each species was analyzed. […]

[3] = system: Desulfovibrio; experiment: Relative abundance of microbiota in feces of volunteers (16s sequencing); assay type: in vivo, human; conditions: 200 mg DHB every day, 3-week experiment, FIG. 1B
Procedure: (§1) Experimental method: Six volunteers (three males and three females) were recruited to obtain relevant health data, and it was confirmed that they had not taken antibiotics or probiotics in the previous three months, and were healthy and had no chronic diseases. A 3-week experiment was designed. Volunteers had 30 minutes of moderate-intensity exercise every day, and ensured regular work and rest, reasonable diet, and no smoking or drinking. They were administered 200 mg of dihydroberberine (DHB) every day, and fecal samples were collected on days 0, 7, 14 and 21 of the experiment, and the corresponding bacterial species were analyzed. Before the experiment, fecal samples of each volunteer were collected, and species information was obtained through genomic DNA extraction, PCR amplification of 16s RNA and database comparison.

[4] = system: Lactobacillus acidophilus; experiment: as above; assay type: in vivo, human; conditions: 200 mg DHB every day, 3-week experiment, FIG. 1A
Procedure: as §1

[5] = system: Faecalibacterium Prausnitzii; experiment: as above; assay type: in vivo, human; conditions: 200 mg DHB every day, 3-week experiment, FIG. 1A
Procedure: as §1

[6] = system: Bacteroides fragilis; experiment: as above; assay type: in vivo, human; conditions: 200 mg DHB every day, 3-week experiment, FIG. 1A
Procedure: as §1

[7] = system: Akkermansia muciniphila; experiment: as above; assay type: in vivo, human; conditions: 200 mg DHB every day, 3-week experiment, FIG. 1A
Procedure: as §1

[8] = system: Klebsiella pneumoniae; experiment: as above; assay type: in vivo, human; conditions: 200 mg DHB every day, 3-week experiment, FIG. 1B
Procedure: as §1

[9] = system: Akkermansia muciniphila; experiment: Absolute amount of Akkermansia muciniphila in mouse feces (qPCR); assay type: in vivo, mice; conditions: DHB 100 mg/kg, 4 weeks, FIG. 4
Description: Experimental method: After a week of adaptive feeding, mice were randomly divided into four groups according to sex and weight: group 1, control group, n=10; group 2, normal+DHB group, n=10; group 3, high-fat-high-sugar group, n=10; and group 4, high-fat-high-sugar+DHB group, n=10. High-fat-high-sugar group (group 3) and high-fat-high-sugar+DHB group (group 4) were given high-fat and high-sugar feed (containing 35% fat, 18% protein and 47% carbohydrate), while the control group and normal+DHB group were given normal feed. After eight weeks, blood was taken from the tail vein to detect blood sugar, and the groups 3 and 4 were given high-fat and high-sugar feed, while the control group and normal+DHB group (groups 1 and 2) were given basic feed until the end of the experiment. […]
Determination of absolute amount of Akkermansia muciniphila in mouse feces: The colon feces of mice were collected, the absolute amount of Akkermansia mucinipha in each gram of feces was detected, and the influence of the composition of the invention on the absolute amount of Akkermansia mucinipha in the intestines of normal and high-fat-high-sugar mice was analyzed. […] The data is expressed as the logarithm of the number of bacteria per gram of feces (Log 10), and the results are shown in FIGS. 2-4.

[10] = system: Desulfovibrio; experiment: Relative abundance of microbiota in feces of mice (16S rDNA sequencing); assay type: in vivo; conditions: DHB 100 mg/kg gavage once a day for 4 weeks, FIG. 2B
Description: (§2) Experimental method: After a week of adaptive feeding, mice were randomly divided into four groups according to sex and weight: group 1, control group, n=10; group 2, normal+DHB group, n=10; group 3, high-fat-high-sugar group, n=10; and group 4, high-fat-high-sugar+DHB group, n=10. High-fat-high-sugar group (group 3) and high-fat-high-sugar+DHB group (group 4) were given high-fat and high-sugar feed (containing 35% fat, 18% protein and 47% carbohydrate), while the control group and normal+DHB group were given normal feed. After eight weeks, blood was taken from the tail vein to detect blood sugar, and the groups 3 and 4 were given high-fat and high-sugar feed, while the control group and normal+DHB group (groups 1 and 2) were given basic feed until the end of the experiment. Then, groups 2 and 4 were administered DHB at 100 mg/kg (dissolved in physiological saline) for 4 weeks, and fecal samples were taken on days 0, 14 and 28. The maximum dose of DHB refers to the usual dose of daily health care, and the dosage is set to 200 mg/kg. The specific gavage scheme is: dissolve DHB in water and gavage once a day according to the weight of mice, while the control group gavage with the same amount of pure water. Analysis of the relative abundance of intestinal flora: Four samples of mouse feces were randomly taken from each group. The samples were first extracted for DNA, 16S rDNA was amplified by PCR, and then sequenced. After completing the classification of data species, the relative abundance of each species was analyzed.

[11] = system: Lactobacillus acidophilus; experiment: as above; assay type: in vivo; conditions: DHB 100 mg/kg gavage once a day for 4 weeks, FIG. 2A
Description: as §2

[12] = system: Faecalibacterium Prausnitzii; experiment: as above; assay type: in vivo; conditions: DHB 100 mg/kg gavage once a day for 4 weeks, FIG. 2A
Description: as §2

[13] = system: Bacteroides fragilis; experiment: as above; assay type: in vivo; conditions: DHB 100 mg/kg gavage once a day for 4 weeks, FIG. 2A
Description: as §2

[14] = system: Akkermansia muciniphila; experiment: as above; assay type: in vivo; conditions: DHB 100 mg/kg gavage once a day for 4 weeks, FIG. 2A
Description: as §2

[15] = system: Klebsiella pneumoniae; experiment: as above; assay type: in vivo; conditions: DHB 100 mg/kg gavage once a day for 4 weeks, FIG. 2B
Description: as §2

[16] = compared with berberine, background statement; cited from earlier work
[17] = high-fat-high-sugar mice: group 4 (+DHB) compared with group 3
[18] = normal feed mice: group 2 (normal+DHB) compared with group 1 (control)

## COc1ccc2c(c1OC)CN1CCc3cc4c(cc3C1=C2)OCO4 [dihydroberberine]
[1]; FIGS. 5A-5C
  intestinal pathological changes (colon tissue, hematoxylin-eosin and Alxin blue staining): significantly improved the integrity of crypt structure
[1]; model group close to 3
  DAI score (disease activity index): about 1.1
[2]; [17]
  increase of ratio of Bacteroides to Firmicutes: 0.51
[2]; [18]
  increase of ratio of Bacteroides to Firmicutes: 0.36
[3]
  decrease of relative abundance level of Desulfovibrio: 0.14%
[4]
  increase of relative abundance level of Lactobacillus acidophilus: 0.20%
[5]
  increase of relative abundance level of Faecalibacterium Prausnitzii: 0.15%
[6]
  increase of relative abundance level of Bacteroides fragilis: 0.11%
[7]
  increase of relative abundance level of Akkermansia muciniphila: 0.09%
[8]
  decrease of relative abundance level of Klebsiella pneumoniae: 0.12%
[9]; [17]
  increase of logarithm number of Akkermansia muciniphila per gram of feces: 0.55 order of magnitude
[9]; [18]
  increase of logarithm number of Akkermansia muciniphila per gram of feces: 0.65 order of magnitude
[10]
  decrease of relative abundance level of Desulfovibrio: 0.08%
[11]
  increase of relative abundance level of Lactobacillus acidophilus: 0.19%
[12]
  increase of relative abundance level of Faecalibacterium Prausnitzii: 0.14%
[13]
  increase of relative abundance level of Bacteroides fragilis: 0.10%
[14]
  increase of relative abundance level of Akkermansia muciniphila: 0.09%
[15]
  decrease of relative abundance level of Klebsiella pneumoniae: 0.11%
[16]
  water solubility relative to berberine: higher water solubility

— patent publication US20250288564A1, “DIHYDROBERBERINE COMPOSITION AND USE THEREOF” (NANJING NUTRABUILDING BIO-TECH CO., LTD., priority 2022, published 2025)
